Experimental data taken from patent US20220177538A1, “CO-AGONISTS AT GLP-1 AND GIP RECEPTORS SUITABLE FOR ORAL DELIVERY” (Novo Nordisk A/S, priority 2020, published 2022).
Where two headings read alike, the source gives them in different places. Marks after values point to notes of the source that are not given here. Starred links: 1 amine or outer side, 2 acyl side, 3 side chain; linkers in the order of their positions; H or OH if unused. Non-standard residues stand in square brackets, D forms with d. Residues, ends and D or L forms follow the SMILES beside them. Groups on a side chain read outwards from the residue. *: point of attachment. C20 diacid = O=C(O)CCCCCCCCCCCCCCCCCCC(=O)*; C18 diacid = O=C(O)CCCCCCCCCCCCCCCCC(=O)*; γGlu = O=C(O)[C@H](CCC(=O)[*:2])N[*:1]; εLys = N[C@@H](CCCCN[*:1])C(=O)[*:2]; Aib = CC(C)(N)C(=O)O

Tests used:
[1] = Pharmacokinetic study in dogs after oral dosing of tablets with SNAC; format: in vivo, Beagle dogs; details: dog, in vivo, po; for Tmax / half-life: male, Beagle
Method: The purpose of this example is to determine the half-life and plasma exposure in vivo of the compounds of the present invention after p.o. administration to beagle dogs, i.e. the terminal half-life and concentration of test substance that reaches circulation with time. This is done in a pharmacokinetic (PK) study, where these parameters of the compound in question are determined. By terminal half-life is generally meant the period of time it takes to halve a certain plasma concentration, measured after the initial distribution phase.
The amount of SNAC in the tablet composition was 100-300 mg, the amount of magnesium stearate in the tablet composition was 7.7 mg, and the target amount of each test substance in the tablet composition was 3-4 mg.
Male beagle dogs, 1-7 years of age and weighing 9-17 kg during the study period, were included in the study. The dogs were dosed in a fasting state. The dogs were group housed in pens (12 hours light: 12 hours dark), and fed individually and restrictedly once daily with Royal Canin Medium Adult dog food (Royal Canin Products, China Branch, or Brogaarden A/S, Denmark). The dogs were used for repeated PK studies with a suitable wash-out period between successive dosing. An appropriate acclimatization period was given prior to initiation of the first PK study. All handling, dosing, and blood sampling of the animals were performed by trained and skilled staff. Before the studies, the dogs were fasted overnight and from 0 to 4 hours after dosing. The dogs were restricted to water 1 hour before dosing until 4 hours after dosing, but otherwise had ad libitum access to water during the whole period.
The compositions were administered by a single oral dosing to the dogs in groups of 6-8 dogs. […] The mouth was then closed, and 10 mL of tap water was given by syringe or gavage to facilitate swallowing of the tablet.
One blood sample was drawn before dosing, and additional samples were drawn at predefined time points after dosing for up to 240 hours, such as up to 10 hours, to adequately cover the full plasma concentration-time absorption profile of the test substance. For each blood sample time point, approximately 0.8 mL of whole blood was collected in a 1.5 mL EDTA-coated tube, which was gently turned to mix the sample with EDTA. Blood samples were collected in EDTA buffer (8 mM) and then centrifuged at 4° C. 2000 g for 10 minutes. Plasma was pipetted into Micronic tubes on dry ice, and kept at −20° C. or lower until analysis. Blood samples were taken as appropriate, for example from a venflon in the cephalic vein in the front leg for the first 2 hours and then with syringe from the jugular vein for the rest of the time points. The first few drops were allowed to drain from the venflon to avoid heparin saline from the venflon in the sample.
All blood samples were collected into test tubes containing EDTA for stabilisation and kept on ice until centrifugation. Plasma was separated from whole blood by centrifugation and the plasma was stored at −20° C. or lower until analysis.
The plasma was analysed for test substance using LC-MS (Liquid Chromatography-Mass Spectrometry) as known to the person skilled in the art. […] RP-HPLC separation was achieved using a linear gradient of 1:1 acetonitrile/methanol in 1% aqueous formic acid using either: a Phenomenex Onyx Monolithic C18 column (50×2.0 mm) and a flow rate of 0.8 mL/min at 30° C.; or an Agilent Poroshell 120 SB-C18 column (50×2.1 mm, 2.7 μm) at a flow rate of 0.4 mL/min at 60° C. The mass spectrometer was operated in either positive ionization SIM mode or positive ionization PRM mode.
For each individual animal, a plasma concentration-time profile was analysed by a non-compartmental model in Pharsight Phoenix WinNonLin ver.

[2] = biological target: human GLP-1 receptor (Homo sapiens, UniProt P43220); assay: In vitro functional potency, CRE luciferase reporter, whole BHK cells (hGLP-1R); format: cell-based; parameters: expressed in transfected cells; host or cells: BHK (parent line BHKTS13), clone BHK CRE luc2P hGLP-1R; details: BHK CRE luc2P hGLP-1R cells
In short: (§1)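 BHK CRE luc2P cells stably expressing hGIPR or hGLP-1R were seeded at 5000 cells/well overnight. They were treated 3 h at 37° C with a 12-point, 3.5-fold compound series in buffer with or without HSA, and luciferase luminescence was read. Values come from log(agonist)-response regression, averaging at least two replicates.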

[3] = biological target: T1, human GIP receptor (Homo sapiens, UniProt P48546); assay: In vitro functional potency, CRE luciferase reporter, whole BHK cells (hGIPR); format: cell-based; details: BHK CRE luc2P hGIPR cells
T1 construct: expressed in transfected cells; host or cells: BHK (parent line BHKTS13), clone BHK CRE luc2P hGIPR
T1 sequence (P48546 22-466): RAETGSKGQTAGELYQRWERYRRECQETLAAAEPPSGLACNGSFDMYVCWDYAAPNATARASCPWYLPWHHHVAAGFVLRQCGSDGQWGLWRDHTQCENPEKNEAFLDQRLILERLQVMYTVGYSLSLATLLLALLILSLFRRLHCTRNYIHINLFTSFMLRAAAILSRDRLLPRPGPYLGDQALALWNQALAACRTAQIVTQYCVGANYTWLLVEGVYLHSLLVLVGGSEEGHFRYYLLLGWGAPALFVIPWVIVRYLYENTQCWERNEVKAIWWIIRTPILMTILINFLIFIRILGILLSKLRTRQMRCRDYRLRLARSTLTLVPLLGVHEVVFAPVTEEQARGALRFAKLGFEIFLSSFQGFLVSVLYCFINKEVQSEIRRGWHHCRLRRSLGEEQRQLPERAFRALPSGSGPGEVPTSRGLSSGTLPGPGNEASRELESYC
In short: as §1

[4] = 0% HSA, read-out: hGLP-1R, CRE Luc 0% HSA EC50
[5] = hGLP-1R, CRE Luc 1% HSA EC50, 1% HSA
[6] = 0% HSA, read-out: hGIPR, CRE Luc 0% HSA EC50
[7] = hGIPR, CRE Luc 1% HSA EC50, 1% HSA

human GLP-1 receptor, sequence (P43220 24-463): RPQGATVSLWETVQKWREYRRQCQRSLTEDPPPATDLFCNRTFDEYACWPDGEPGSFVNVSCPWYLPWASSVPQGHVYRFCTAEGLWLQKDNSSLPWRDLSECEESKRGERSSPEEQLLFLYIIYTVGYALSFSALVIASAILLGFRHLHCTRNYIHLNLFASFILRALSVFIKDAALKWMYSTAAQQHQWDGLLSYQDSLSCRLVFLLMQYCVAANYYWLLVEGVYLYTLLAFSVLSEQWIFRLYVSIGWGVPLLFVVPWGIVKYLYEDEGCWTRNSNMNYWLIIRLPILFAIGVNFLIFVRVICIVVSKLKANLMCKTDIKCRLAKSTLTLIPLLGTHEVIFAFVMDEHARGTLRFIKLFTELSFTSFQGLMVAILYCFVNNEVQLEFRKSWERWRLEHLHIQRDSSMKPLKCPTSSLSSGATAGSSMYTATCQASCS

Compound	AUC/Dose [1]	Cmax/Dose [1]	Tmax [1]	half-life [1]	EC50 [2, 4]	EC50 [2, 5]	EC50 [3, 6]	EC50 [3, 7]
CC[C@H](C)[C@H](NC(=O)[C@H](Cc1ccccc1)NC(=O)[C@H](CCC(=O)O)NC(=O)[C@H](CCC(=O)O)NC(=O)[C@H](C)NC(=O)[C@H](C)NC(=O)[C@H](CCC(N)=O)NC(=O)[C@H](CCCCNC(=O)[C@@H](N)CCCCNC(=O)[C@@H](N)CCCCNC(=O)CC[C@H](NC(=O)CCCCCCCCCCCCCCCCC(=O)O)C(=O)O)NC(=O)[C@H](CCC(=O)O)NC(=O)[C@H](CC(C)C)NC(=O)[C@H](CC(C)C)NC(=O)[C@@H](NC(=O)[C@H](CO)NC(=O)[C@H](Cc1ccc(O)cc1)NC(=O)[C@H](CC(=O)O)NC(=O)[C@H](CO)NC(=O)[C@@H](NC(=O)[C@H](Cc1ccccc1)NC(=O)[C@@H](NC(=O)CNC(=O)[C@H](CCC(=O)O)NC(=O)C(C)(C)NC(=O)[C@@H](N)Cc1ccc(O)cc1)[C@@H](C)O)[C@@H](C)O)[C@@H](C)CC)C(=O)N[C@@H](CC(N)=O)C(=O)N[C@@H](Cc1c[nH]c2ccccc12)C(=O)N[C@@H](CC(C)C)C(=O)N[C@@H](CC(C)C)C(=O)N[C@@H](C)C(=O)NCC(=O)NCC(=O)N1CCC[C@H]1C(=O)N[C@@H](CO)C(=O)N[C@@H](CO)C(=O)NCC(=O)N[C@@H](C)C(=O)N1CCC[C@H]1C(=O)N1CCC[C@H]1C(=O)N1CCC[C@H]1C(=O)N[C@@H](CO)C(=O)O [Compound 25] (H-Y[Aib]EGTFTSDYSILLEK([εLys-εLys-γGlu-C18 diacid])QAAEEFINWLLAGGPSSGAPPPS-OH)	15.2 kg·h/L	0.30 kg/L	1.8 h	43 h	0.0155 nM	0.74 nM	0.0072 nM	0.263 nM
CC[C@H](C)[C@H](NC(=O)[C@H](Cc1ccccc1)NC(=O)[C@H](CCC(=O)O)NC(=O)[C@H](Cc1c[nH]cn1)NC(=O)[C@H](C)NC(=O)[C@H](C)NC(=O)[C@H](CCC(N)=O)NC(=O)[C@H](CCCCNC(=O)[C@@H](N)CCCCNC(=O)[C@@H](N)CCCCNC(=O)CC[C@H](NC(=O)CCCCCCCCCCCCCCCCC(=O)O)C(=O)O)NC(=O)[C@H](CCC(=O)O)NC(=O)[C@H](CC(C)C)NC(=O)[C@H](CC(C)C)NC(=O)[C@@H](NC(=O)[C@H](CO)NC(=O)[C@H](Cc1ccc(O)cc1)NC(=O)[C@H](CC(=O)O)NC(=O)[C@H](CO)NC(=O)[C@@H](NC(=O)[C@H](Cc1ccccc1)NC(=O)[C@@H](NC(=O)CNC(=O)[C@H](CCC(=O)O)NC(=O)C(C)(C)NC(=O)[C@@H](N)Cc1ccc(O)cc1)[C@@H](C)O)[C@@H](C)O)[C@@H](C)CC)C(=O)N[C@@H](CC(N)=O)C(=O)N[C@@H](Cc1c[nH]c2ccccc12)C(=O)N[C@@H](CC(C)C)C(=O)N[C@@H](CC(C)C)C(=O)N[C@@H](C)C(=O)NCC(=O)NCC(=O)N1CCC[C@H]1C(=O)N[C@@H](CO)C(=O)N[C@@H](CO)C(=O)NCC(=O)N[C@@H](C)C(=O)N1CCC[C@H]1C(=O)N1CCC[C@H]1C(=O)N1CCC[C@H]1C(=O)N[C@@H](CO)C(=O)O [Compound 26] (H-Y[Aib]EGTFTSDYSILLEK([εLys-εLys-γGlu-C18 diacid])QAAHEFINWLLAGGPSSGAPPPS-OH)	27.4* kg * h/L	0.49* kg/L	1.2 h	70 h	0.0074 nM	0.595 nM	0.0049 nM	0.153 nM
CC[C@H](C)[C@H](NC(=O)[C@H](Cc1ccccc1)NC(=O)[C@H](CCC(=O)O)NC(=O)[C@H](CCCNC(=N)N)NC(=O)[C@H](C)NC(=O)[C@H](C)NC(=O)[C@H](CCC(N)=O)NC(=O)[C@H](CCC(=O)O)NC(=O)[C@H](CCC(=O)O)NC(=O)[C@H](CC(C)C)NC(=O)[C@H](CC(C)C)NC(=O)[C@H](CCCCNC(=O)[C@@H](N)CCCCNC(=O)[C@@H](N)CCCCNC(=O)CC[C@H](NC(=O)CCCCCCCCCCCCCCCCC(=O)O)C(=O)O)NC(=O)[C@H](CO)NC(=O)[C@H](Cc1ccc(O)cc1)NC(=O)[C@H](CC(=O)O)NC(=O)[C@H](CO)NC(=O)[C@@H](NC(=O)[C@H](Cc1ccccc1)NC(=O)[C@@H](NC(=O)CNC(=O)[C@H](CCC(=O)O)NC(=O)C(C)(C)NC(=O)[C@@H](N)Cc1ccc(O)cc1)[C@@H](C)O)[C@@H](C)O)C(=O)N[C@@H](CCC(=O)O)C(=O)N[C@@H](Cc1c[nH]c2ccccc12)C(=O)N[C@@H](CC(C)C)C(=O)N[C@@H](CC(C)C)C(=O)N[C@@H](C)C(=O)NCC(=O)NCC(=O)N1CCC[C@H]1C(=O)N[C@@H](CO)C(=O)N[C@@H](CO)C(=O)NCC(=O)N[C@@H](C)C(=O)N1CCC[C@H]1C(=O)N1CCC[C@H]1C(=O)N1CCC[C@H]1C(=O)N[C@@H](CO)C(=O)O [Compound 40]	27.0 kg·h/L	0.48 kg/L	2 h	61 h	0.0064 nM	0.334 nM	0.0095 nM	0.501 nM
CC[C@H](C)[C@H](NC(=O)[C@H](Cc1ccccc1)NC(=O)[C@H](CCC(=O)O)NC(=O)[C@H](CCCNC(=N)N)NC(=O)[C@H](C)NC(=O)[C@H](C)NC(=O)[C@H](CCC(N)=O)NC(=O)[C@H](CCCCNC(=O)[C@@H](N)CCCCNC(=O)[C@@H](N)CCCCNC(=O)CC[C@H](NC(=O)CCCCCCCCCCCCCCCCCCC(=O)O)C(=O)O)NC(=O)[C@H](CCC(=O)O)NC(=O)[C@H](CC(C)C)NC(=O)[C@H](Cc1ccc(O)cc1)NC(=O)[C@@H](NC(=O)[C@H](CO)NC(=O)[C@H](Cc1ccc(O)cc1)NC(=O)[C@H](CC(=O)O)NC(=O)[C@H](CO)NC(=O)[C@@H](NC(=O)[C@H](Cc1ccccc1)NC(=O)[C@@H](NC(=O)CNC(=O)[C@H](CCC(=O)O)NC(=O)C(C)(C)NC(=O)[C@@H](N)Cc1ccc(O)cc1)[C@@H](C)O)[C@@H](C)O)[C@@H](C)CC)C(=O)N[C@@H](CC(N)=O)C(=O)N[C@@H](Cc1c[nH]c2ccccc12)C(=O)N[C@@H](CC(C)C)C(=O)N[C@@H](CC(C)C)C(=O)N[C@@H](C)C(=O)NCC(=O)NCC(=O)N1CCC[C@H]1C(=O)N[C@@H](CO)C(=O)N[C@@H](CO)C(=O)NCC(=O)N[C@@H](C)C(=O)N1CCC[C@H]1C(=O)N1CCC[C@H]1C(=O)N1CCC[C@H]1C(=O)N[C@@H](CO)C(=O)O [Compound 16] (H-Y[Aib]EGTFTSDYSIYLEK([εLys-εLys-γGlu-C20 diacid])QAAREFINWLLAGGPSSGAPPPS-OH)	8.6 kg·h/L	0.21 kg/L	1.3 h	47 h	0.0031 nM	0.321 nM	0.0134 nM	0.804 nM
